According to patent US20030186334A1, “KTS-disintegrins” (Temple University - Of the Commonwealth System of Higher …, priority 2001, published 2003):

Key:
α1β1 and α2β1 integrins = assay: adhesion of unblocked MV3 cells to immobilized collagen IV; type: cell-based, human
Experimental: (§1) The α1β1 integrin specific inhibitory effect of obtustatin was confirmed using human melanoma MV3 cells. MV3 cells express both the α1β1 and α2β1 integrins. MV3 cells adhere strongly to collagen IV through α1β1 and α2β1 integrin-mediated interactions.
Collagen IV (0.2 μg/well) in 0.02 M acetic acid was immobilized overnight at 4° C. on a 96-well plate. Plates were then blocked with 1% (w/v) BSA (bovine serum albumin) in Hank's Balanced Salt Solution (HBSS) containing 3 mM Mg^2+ at room temperature for 1-2 hours to prevent cells from non-specifically binding to the plates. […] were labeled by incubation with 12.5 μM 5-chloromethylfluorescein diacetete (CMFDA) in HBSS for 15 minutes at 37° C. CMFDA labeled MV3 cells were then pelleted, washed and resuspended in HBSS buffer containing 3mM Mg^2+ and 1% (w/v) BSA. 1×10^5 cells were then added to each well in the presence (10 μg/ml) or absence of the α1 integrin subunit specific AJH10 mAb and α2 integrin subunit specific P1E6 mAb as indicated in FIG. 5. Obtustatin was added at the concentrations indicated in FIG. 5 simultaneously with the mAbs. The plates were then incubated at 37° C. for 30 minutes and washed three times with HBSS containing 3 mM Mg^2+ and 1% (w/v) BSA to remove unbound cells. […] Fluorescent CMFDA released by lysis of adherent cells in a given well was read using a Cytofluor 2350 fluorescence plate reader. […]

α5β1 integrin = molecular target: T1, α5β1 integrin (Homo sapiens, UniProt P05556+P08648); assay: adhesion of K562 cells to fibronectin; type: cell-based
T1 construct: endogenous in cells; host or cells: K562 cells
T1 sequence (P08648 42-894 limits assumed): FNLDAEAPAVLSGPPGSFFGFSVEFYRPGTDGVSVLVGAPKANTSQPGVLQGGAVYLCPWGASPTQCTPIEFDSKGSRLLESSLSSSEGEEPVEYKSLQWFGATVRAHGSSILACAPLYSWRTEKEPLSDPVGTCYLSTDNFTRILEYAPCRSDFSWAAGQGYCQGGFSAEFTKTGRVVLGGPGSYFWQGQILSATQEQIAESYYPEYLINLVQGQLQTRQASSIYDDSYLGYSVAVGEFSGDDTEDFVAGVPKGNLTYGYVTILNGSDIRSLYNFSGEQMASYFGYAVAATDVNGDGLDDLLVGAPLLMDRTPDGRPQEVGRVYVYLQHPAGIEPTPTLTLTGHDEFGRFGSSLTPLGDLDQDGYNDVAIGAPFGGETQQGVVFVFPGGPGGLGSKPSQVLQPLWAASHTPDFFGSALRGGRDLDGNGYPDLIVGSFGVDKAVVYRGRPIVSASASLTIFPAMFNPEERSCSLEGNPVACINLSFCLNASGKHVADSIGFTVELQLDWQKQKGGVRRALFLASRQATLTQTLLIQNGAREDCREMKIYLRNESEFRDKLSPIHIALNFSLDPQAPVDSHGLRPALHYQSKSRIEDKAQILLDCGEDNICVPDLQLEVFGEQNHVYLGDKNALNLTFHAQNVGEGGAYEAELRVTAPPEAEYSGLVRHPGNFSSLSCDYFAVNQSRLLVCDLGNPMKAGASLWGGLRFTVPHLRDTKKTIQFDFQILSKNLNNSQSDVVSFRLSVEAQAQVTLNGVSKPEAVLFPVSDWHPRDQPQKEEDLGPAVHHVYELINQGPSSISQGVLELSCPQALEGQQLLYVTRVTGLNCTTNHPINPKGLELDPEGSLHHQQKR
T1 sequence (P08648 895-1049 partner limits assumed): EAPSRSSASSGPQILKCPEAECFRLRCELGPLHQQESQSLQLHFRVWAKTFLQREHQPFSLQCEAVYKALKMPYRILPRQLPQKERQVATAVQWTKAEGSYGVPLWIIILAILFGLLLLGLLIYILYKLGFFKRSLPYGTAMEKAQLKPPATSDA
T1 sequence (P05556 21-798): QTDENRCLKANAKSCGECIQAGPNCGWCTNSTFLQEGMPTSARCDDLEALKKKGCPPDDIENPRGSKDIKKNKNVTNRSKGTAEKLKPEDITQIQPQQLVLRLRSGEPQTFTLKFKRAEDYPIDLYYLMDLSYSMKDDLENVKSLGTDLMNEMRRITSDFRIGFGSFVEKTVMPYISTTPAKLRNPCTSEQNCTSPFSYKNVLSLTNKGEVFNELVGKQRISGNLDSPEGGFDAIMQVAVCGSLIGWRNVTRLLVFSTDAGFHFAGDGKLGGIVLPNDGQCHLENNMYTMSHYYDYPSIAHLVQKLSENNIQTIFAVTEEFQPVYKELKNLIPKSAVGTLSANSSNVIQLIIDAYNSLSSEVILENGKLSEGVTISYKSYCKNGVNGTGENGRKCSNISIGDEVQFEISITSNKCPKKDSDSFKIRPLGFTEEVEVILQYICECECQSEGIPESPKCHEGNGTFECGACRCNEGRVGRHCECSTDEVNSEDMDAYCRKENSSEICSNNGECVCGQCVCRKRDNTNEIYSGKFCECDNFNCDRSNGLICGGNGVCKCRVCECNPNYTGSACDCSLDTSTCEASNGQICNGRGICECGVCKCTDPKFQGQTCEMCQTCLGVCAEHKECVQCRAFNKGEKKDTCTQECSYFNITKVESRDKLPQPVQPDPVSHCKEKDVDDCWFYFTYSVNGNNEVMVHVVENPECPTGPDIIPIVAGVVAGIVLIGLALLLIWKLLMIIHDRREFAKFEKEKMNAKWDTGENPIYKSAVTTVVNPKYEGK
Experimental: (§2) Adhesive ligands for the selected integrins consisted of collagen IV (0.2 μg/well), collagen I, fibronectin, or vascular cell adhesion molecule-1 (VCAM-1). Adhesive ligands in 0.02 M acetic acid were immobilized overnight at 4° C. on a 96-well plate. Plates were then blocked with 1% (w/v) BSA (bovine serum albumin) in Hank's Balanced Salt Solution (HBSS) containing 3 mM Mg^2+ at room temperature for 1-2 hours to prevent cells from non-specifically binding to the plates. α1K562, α2K562, K562, A5, and Jurkat cells expressing the α1β1, α2β1, α5β1, αIIbβ3, and α4β1 integrins respectively were labeled by incubation with 12.5 μM 5-chloromethylfluorescein diacetate (CMFDA) in HBSS for 15 minutes at 37° C. CMFDA labeled cells were then pelleted, washed and resuspended in HBSS buffer containing 3 mM Mg^2+ and 1% (w/v) BSA. […] Plates were then incubated at 37° C. for 30 minutes as indicated in Table 5 and washed three times with HBSS containing 3 mM Mg^2+ and 1% (w/v) BSA to remove unbound cells. Bound cells were lysed using 0.5% (v/v) Triton X-100 in H2O. Fluorescent CMFDA released by lysis of adherent cells in a given well was read using a Cytofluor 2350 fluorescence plate reader.
(§3) The effect of obtustatin, viperisrastatin, echistatin, and eristostatin on the binding of selected integrins to their adhesive ligands was evaluated using the cell adhesion assay described in Example 6. The integrin-expressing cells, integrins and corresponding adhesive ligands, and the results of the cell adhesion assay are shown in Table 6.

Lewis lung carcinoma = Lewis lung carcinoma growth in syngeneic mouse model; type: in vivo, C57BL/6 mice; conditions: 5 mg/kg intraperitoneally once daily for eight days
Experimental: Lewis lung carcinoma cells (1×10^6) were injected under the skin of the C57BL/6 mice (Tacoma Inc., Germantown, N.Y.), and tumors were allowed to grow for one week. The average tumor size after one week of growth was approximately 0.08 cm^3. The one-week time-point was called “day 0.” Two treatment groups of four mice each were injected intraperitoneally once daily with either 5 mg/kg obtustatin or 5 mg/kg echistatin beginning on day 0 for a total of eight days. A control group of four mice received only PBS. Tumor volume was measured daily using the formula length×width^2×0.52.

α1β1 integrin = molecular target: T2, α1β1 integrin (Homo sapiens, UniProt P05556+P56199); assay: adhesion of P1E6 blocked MV3 cells to immobilized collagen IV; type: cell-based; conditions: only α1β1 mediates adhesion
T2 construct: expressed in transfected cells; host or cells: α1K562 cells
T2 sequence (P56199 29-1179): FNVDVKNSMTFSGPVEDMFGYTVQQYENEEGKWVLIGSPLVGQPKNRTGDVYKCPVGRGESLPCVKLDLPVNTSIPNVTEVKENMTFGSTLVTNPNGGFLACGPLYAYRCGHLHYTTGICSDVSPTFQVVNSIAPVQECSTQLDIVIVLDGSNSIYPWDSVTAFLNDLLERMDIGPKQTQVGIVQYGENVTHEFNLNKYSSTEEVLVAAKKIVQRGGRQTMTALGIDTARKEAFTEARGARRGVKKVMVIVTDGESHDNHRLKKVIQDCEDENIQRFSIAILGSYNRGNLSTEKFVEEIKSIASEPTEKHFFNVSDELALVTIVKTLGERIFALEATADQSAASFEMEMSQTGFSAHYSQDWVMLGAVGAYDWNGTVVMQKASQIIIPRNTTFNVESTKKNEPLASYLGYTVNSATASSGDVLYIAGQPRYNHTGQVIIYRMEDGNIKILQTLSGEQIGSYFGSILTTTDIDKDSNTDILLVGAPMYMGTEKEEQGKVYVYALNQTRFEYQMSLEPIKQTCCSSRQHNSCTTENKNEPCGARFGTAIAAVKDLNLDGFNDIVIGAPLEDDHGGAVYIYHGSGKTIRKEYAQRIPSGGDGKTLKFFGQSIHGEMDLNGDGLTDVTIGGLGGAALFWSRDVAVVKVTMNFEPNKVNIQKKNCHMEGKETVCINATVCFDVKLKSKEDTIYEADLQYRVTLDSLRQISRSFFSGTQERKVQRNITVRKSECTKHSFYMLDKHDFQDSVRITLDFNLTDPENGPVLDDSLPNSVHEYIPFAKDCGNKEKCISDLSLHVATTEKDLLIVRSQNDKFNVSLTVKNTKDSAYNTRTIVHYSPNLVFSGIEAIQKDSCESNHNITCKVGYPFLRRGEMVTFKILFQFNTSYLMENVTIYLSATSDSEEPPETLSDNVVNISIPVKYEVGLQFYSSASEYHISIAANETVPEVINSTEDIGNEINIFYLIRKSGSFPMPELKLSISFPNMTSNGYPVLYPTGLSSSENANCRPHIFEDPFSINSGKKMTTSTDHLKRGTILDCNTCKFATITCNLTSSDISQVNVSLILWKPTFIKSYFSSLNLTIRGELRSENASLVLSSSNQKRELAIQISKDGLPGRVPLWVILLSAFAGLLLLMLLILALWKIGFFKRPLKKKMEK
T2 sequence (P05556 21-798): as the sequence (P05556 21-798) above
Experimental: as §1
Collagen IV (0.2 μg/well) in 0.02 M acetic acid was immobilized overnight at 4° C. on a 96-well plate. Plates were then blocked with 1% (w/v) BSA (bovine serum albumin) in Hank's Balanced Salt Solution (HBSS) containing 3 mM Mg^2+ at room temperature for 1-2 hours to prevent cells from non-specifically binding to the plates. α1K562 cells were labeled by incubation with 12.5 μM 5-chloromethylfluorescein diacetete (CMFDA) in HBSS for 15 minutes at 37° C. CMFDA labeled MV3 cells were then pelleted, washed and resuspended in HBSS buffer containing 3mM Mg^2+ and 1% (w/v) BSA. 1×10^5 cells were then added to each well in the presence (10 μg/ml) or absence of the α1 integrin subunit specific AJH10 mAb and α2 integrin subunit specific P1E6 mAb as indicated in FIG. 5. Obtustatin was added at the concentrations indicated in FIG. 5 simultaneously with the mAbs. The plates were then incubated at 37° C. for 30 minutes and washed three times with HBSS containing 3 mM Mg^2+ and 1% (w/v) BSA to remove unbound cells. […] Fluorescent CMFDA released by lysis of adherent cells in a given well was read using a Cytofluor 2350 fluorescence plate reader.

MV3 human melanoma cells = assay: MV3 melanoma cell migration through HUVEC layer; type: cell-based; conditions: 3 hours
Experimental: Cell migration through an endothelial cell layer is an important event in cancer cell metastasis. The effect of obtustatin on melanoma cell migration through an endothelial cell layer in vitro was evaluated as follows. Human umbilical vein endothelial cells (HUVECs) of 3-7 passages were purchased from Cascade Biologics (Portland, Oreg.). The HUVECs were seeded into 8.0 μm pore size FALCON® HTS FluoroBlok™ inserts (Becton Dickinson, Franklin Lakes, N.J.) in serum-containing endothelial cell growth medium. The inserts were placed into the wells of a 24-well plate (Becton-Dickinson), and the HUVECs allowed to grow to confluence on the insert over 72 hours. The interior of the FluoroBlok™ inserts is referred to below as the “upper chamber,” and the interior of the well in which the insert sits is referred to as the “lower chamber.”
Twenty-four hours before the assay, the upper chambers were washed with serum-free medium, and new medium containing TNF-α (3 ng/ml) was added to activate the HUVECs. […] After 3 hours incubation at 37° C. in 5% CO2, the extent of MV3 migration into the bottom chambers was assessed using a bottom-reading Cytofluor 2350 (Millipore Inc., Bedford Mass.). The amount of fluorescence in the lower chambers is directly related to the number of MV3 cells which have migrated through the HUVEC layer from the upper chamber. […]

αIIbβ3 integrin = molecular target: T3, αIIbβ3 integrin (Homo sapiens, UniProt P05106+P08514); assay: adhesion of A5 cells to fibrinogen; type: cell-based
T3 construct: expressed in transfected cells; host or cells: A5 cells
Experimental: as §2, §3

Substance: Obtustatin (CTTGPCCRQCKLKPAGTTCWKTSLTSHYCTGKSCDCPLYPG)
- inhibition of adhesion of MV3 cells to collagen IV (α1β1 and α2β1 integrins): comparatively insensitive
- IC50 (α5β1 integrin): > 10 µM
- inhibition of tumor development (tumor volume) (Lewis lung carcinoma): by about half
- inhibition of adhesion of MV3 cells to collagen IV (α1β1 integrin): inhibited by significantly lower obtustatin concentrations
- migration of MV3 cells through the HUVEC layer (MV3 human melanoma cells; collagen IV or FGF as chemoattractants, 0 to 500 nM): inhibited migration
- concentration giving essentially complete inhibition of MV3 cell migration (MV3 human melanoma cells; through HUVEC layer): above 200 nM
- IC50 (αIIbβ3 integrin): > 10 µM
